Reference: patent US11497819B2, “PSMA ligands for imaging and endoradiotherapy” (priority 2017, dated 2022)
“And” between values parts separate entries of the source, which are not always exact repeats. Equal entries are not always repeated. Where two headings read alike, the source gives them in different places. Blank lines part the entries; values can stand above or below the compound they belong to.

Key:
LNCaP cells [1] = experiment: Internalization into LNCaP cells, relative cellular uptake to ([^125I]I-BA)KuE; type: cell-based; conditions: c = 1.0 nM ^177Lu-labeled inhibitor, 37° C., 60 min, corrected for non-specific binding (10 μM 2-PMPA), mean ± SD (n = 3)
Protocol: PSMA-positive LNCAP cells (300265; Cell Lines Service GmbH) were cultivated in Dulbecco modified Eagle medium/Nutrition Mixture F-12 (1/1) (DMEM-F12, Biochrom) supplemented with fetal calf serum (FCS) (10%, Biochrom) and kept at 37° C. in a humidified CO2 atmosphere (5%). One day (24 h±2 h) prior to all experiments with LNCaP cells, the cultivated cells were harvested using a mixture of trypsin/ethylendiaminetetraacetate (0.05%/0.02%) and PBS and centrifuged. After centrifugation, the supernatant was disposed and the cell pellet resuspended in culture medium. Afterwards, cells were counted with a hemocytometer (Neubauer) and seeded in 24-well plates.
Subsequent to the removal of the culture medium, the cells were washed once with DMEM-F12-solution (500 μL, 5% BSA) and left to equilibrate for at least 15 min at 37° C. in DMEM-F12-solution (200 μL, 5% BSA). Afterwards, each well was treated with either DMEM-F12-solution (25 μL, 5% BSA) or 2-PMPA-solution (25 μL, 100 μm) for blockade. […] The experiment was terminated by placing the 24-well plate on ice for 3 min and the consecutive removal of the medium. Each well was rinsed with HBSS (250 μL) and the fractions from these first two steps combined, representing the amount of free radioligand. Removal of surface bound activity was accomplished by incubation of the cells with ice-cold 2-PMPA-solution (250 μL, 10 μm in PBS) for 5 min and subsequent rinsing with ice-cold PBS (250 μL). The internalized activity was determined through incubation of the cells in NaOH (250 μL, 1.0 m) and the combination with the fraction of the subsequent washing step with again NaOH (250 μL, 1.0 m). Each experiment (control and blockade) was performed in triplicate for each time point. Free, surface bound and internalized activity was quantified in a γ-counter.

[2] = Lipophilicity, logP in n-octanol/PBS of radiolabeled PSMA inhibitors; type: physicochemical; conditions: pH 7.4
Protocol: The radiolabeled PSMA inhibitor (0.5 to 1.0 MBq) dissolved in PBS (500 μL, pH=7.4), was added to n-octanol (500 μL) in a reaction vial (1.5 mL), which was rigorously vortexed for 3 min (n=6). For quantitative phase separation, the mixture was centrifuged at 6,000 g for 5 min (Biofuge 15, Heraus Sepatech, Osterode, Germany). The activity from samples of each phase (100 μL) were measured in a γ-counter to obtain the log P(o/w) value.

LNCaP cells [3] = experiment: Externalization kinetics / cell retention in LNCaP cells; type: cell-based; conditions: 60 min incubation, ^177Lu-labeled
Protocol: FIG. 2: Externalization kinetics of selected ^177Lu-labeled PSMA inhibitors from LNCaP cells. […] Then, the supernatant was removed and once washed with DMEM-solution (5% BSA, 37° C.). Afterwards, either A) only DMEM-solution (5% BSA) or B) blockade DMEM-solution (5% BSA, 10 μm 2-PMPA) were added for replacement. The total cellular internalized activity at t=0 min was corrected for non-specific binding (10 μm 2-PMPA) and normalized to 100%. All data are expressed as mean±SD (n=3).
Externalization kinetics of the radiolabeled PSMA inhibitors were determined using LNCaP cells, which were similarly prepared as described for the internalization assay. After an initial cell-washing step with DMEM-F12-solution (5% BSA), the cells were left to recondition for at least 15 min at 37° C. Subsequently, the LNCaP cells were incubated with the respective radiolabeled peptide (25 μL, 10.0 nm) at 37° C. for 60 min in a total volume of 250 μL in each well. After 60 min, the supernatant with the unbound free fraction was removed and measured in a γ-counter for the calculation of total added radioactivity. An acid wash step was avoided to warrant enzyme integrity during the following externalization and recycling study. To determine the recycling rate, fresh DMEM-F12-solution (250 μL, 5% BSA) was given to the cells to allow re-internalization. In contrast, re-internalization was inhibited by addition of DMEM-F12-solution containing 2-PMPA (225 μL DMEM-F12 (5% BSA) and 25 μL of 100 μm 2-PMPA-solution (PBS)). The cells were then incubated for 0, 20, 40 and 60 min at 37° C. Consequently, the supernatant was removed and the cells were washed with ice-cold HBSS (250 μL). The combination of the supernatant and the volume of the concomitant washing step with HBSS (200 μL) account for externalized radioligand at the investigated time point. Further, the cells were then washed with ice-cold 2-PMPA HBSS solution (250 μL, 10 μm) twice, combined and thus represented the fraction of membrane-bound radioligand. The determination of the internalized fraction was achieved by lysis as described for the internalization assay with NaOH (250 μL, 1.0 m). The activities of free, externalized, membrane-bound and internalized radioligand were quantified in a γ-counter.

LNCaP-tumor xenograft = experiment: Biodistribution in LNCaP-tumor xenograft bearing CB-17 SCID mice; type: in vivo
Protocol: All animal experiments were carried out in accordance with the general animal welfare regulations in Germany (Deutsches Tierschutzgesetz, approval #55.2-1-54-2532-71-13). For the tumor model, LNCaP cells (approx. 10^7 cells) were suspended in serum-free DMEM-F12 medium and Matrigel (1/1; v/v) (BD Biosciences, Germany) and inoculated onto the right shoulder of male, 6 to 8 weeks old CB-17 SCID mice (Charles River Laboratories, Sulzfeld, Germany). Animals were used after the tumor size reached 4 to 8 mm in diameter for experiments.

HSA = target: T1, HSA (Homo sapiens, UniProt P02768); experiment: HSA binding on Chiralpak HSA column; type: in vitro ADME; conditions: human, 0.5 mg/mL
T1 construct: purchased Daicel Chemical Industries / Chiral Technologies Europe (Illkirch, France)
T1 sequence (P02768 25-609): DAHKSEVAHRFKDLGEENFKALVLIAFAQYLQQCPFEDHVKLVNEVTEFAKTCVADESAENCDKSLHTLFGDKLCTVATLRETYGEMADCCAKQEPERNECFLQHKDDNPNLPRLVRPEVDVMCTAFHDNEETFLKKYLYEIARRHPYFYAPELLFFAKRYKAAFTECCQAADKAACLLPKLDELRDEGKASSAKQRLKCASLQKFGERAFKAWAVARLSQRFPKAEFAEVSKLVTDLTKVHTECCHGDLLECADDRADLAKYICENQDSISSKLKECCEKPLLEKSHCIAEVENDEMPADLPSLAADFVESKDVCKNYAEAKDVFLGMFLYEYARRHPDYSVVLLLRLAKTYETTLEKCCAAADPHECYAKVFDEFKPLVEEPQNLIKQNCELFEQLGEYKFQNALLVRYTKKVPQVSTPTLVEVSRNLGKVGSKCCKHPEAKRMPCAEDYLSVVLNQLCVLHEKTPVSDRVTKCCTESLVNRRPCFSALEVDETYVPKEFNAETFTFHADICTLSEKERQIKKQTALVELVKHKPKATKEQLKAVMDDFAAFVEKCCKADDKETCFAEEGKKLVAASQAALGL
Protocol: HSA binding experiments were performed as previously described. […] For each run, 10 μL of the solution containing the inhibitor was injected into the RP-HPLC system and the retention time measured. […] Non-linear regression was established with OriginPro 2016G.

[4] = 1 h p.i., ^177Lu-labeled, n = 4
[5] = 1 h p.i., ^177Lu-labeled, n = 4, listed as [^177Lu]PSMA I&T
[6] = 24 h p.i., ^177Lu-labeled, n = 4
[7] = male, CB-17 SCID, mouse, in vivo, 1 h
[8] = male, CB-17 SCID, mouse, in vivo, 24 h

logP ([2]; distribution coefficient in n-octanol/PBS, radiolabeled inhibitor, mean ± SD (n = 6), read-out: logP): -4.12 ± 0.11
adrenal gland (LNCaP-tumor xenograft; [4]): 6.25 ± 2.59 % ID/g
blood (LNCaP-tumor xenograft; [4]): 0.37 ± 0.10 % ID/g
bone (LNCaP-tumor xenograft; [4]): 0.14 ± 0.04 % ID/g
brain (LNCaP-tumor xenograft; [4]): 0.03 ± 0.01 % ID/g
heart (LNCaP-tumor xenograft; [4]): 0.58 ± 0.15 % ID/g
intestine (LNCaP-tumor xenograft; [4]): 0.59 ± 0.50 % ID/g
liver (LNCaP-tumor xenograft; [4]): 0.37 ± 0.10 % ID/g
lung (LNCaP-tumor xenograft; [4]): 1.32 ± 0.45 % ID/g
muscle (LNCaP-tumor xenograft; [4]): 0.18 ± 0.07 % ID/g
pancreas (LNCaP-tumor xenograft; [4]): 1.30 ± 1.39 % ID/g
spleen (LNCaP-tumor xenograft; [4]): 13.8 ± 4.59 % ID/g
stomach (LNCaP-tumor xenograft; [4]): 0.29 ± 0.06 % ID/g
tumor (LNCaP-tumor xenograft; [5]): 4.7±1.0 % ID/g and 4.69±0.95 % ID/g
adrenal g. (LNCaP-tumor xenograft; [6]): 1.06 ± 0.24 % ID/g
blood (LNCaP-tumor xenograft; [6]): 0.012 ± 0.01 % ID/g
bone (LNCaP-tumor xenograft; [6]): 0.01 ± 0.01 % ID/g
brain (LNCaP-tumor xenograft; [6]): 0.02 ± 0.01 % ID/g
heart (LNCaP-tumor xenograft; [6]): 0.05 ± 0.03 % ID/g
intestine (LNCaP-tumor xenograft; [6]): 0.12 ± 0.06 % ID/g
liver (LNCaP-tumor xenograft; [6]): 0.05 ± 0.01 % ID/g
lung (LNCaP-tumor xenograft; [6]): 0.16 ± 0.03 % ID/g
muscle (LNCaP-tumor xenograft; [6]): 0.01 ± 0.01 % ID/g
pancreas (LNCaP-tumor xenograft; [6]): 0.05 ± 0.02 % ID/g
spleen (LNCaP-tumor xenograft; [6]): 1.94 ± 1.01 % ID/g
stomach (LNCaP-tumor xenograft; [6]): 0.05 ± 0.02 % ID/g
tumor (LNCaP-tumor xenograft; 24 h p.i., ^177Lu-labeled, n = 4, listed as [^177Lu]PSMA I&T): 4.06±1.12 % ID/g
SMILES: O=C(O)CC[C@H](NC(=O)N[C@@H](CCCCNC(=O)CCCCCCC(=O)NCCCC[C@@H](NC(=O)[C@@H](Cc1ccccc1)NC(=O)[C@@H](Cc1ccc(O)c(I)c1)NC(=O)CCC(C(=O)O)N1CCN(CC(=O)O)CCN(CC(=O)O)CCN(CC(=O)O)CC1)C(=O)O)C(=O)O)C(=O)O (some centres unmarked) [PSMA I&T, DOTAGA-y(3-I)fk(Sub-KuE), reference compound]
Internalization (LNCaP cells [1]; listed as [^177Lu]PSMA I&T): 75.5±1.6%
Internalization (LNCaP cells [1]; listed as [^nat/177Lu]PSMA I&T): 75.5 ± 1.6%
in vitro tumor cell retention (LNCaP cells [3]): 62.8±0.4%
kidney (LNCaP-tumor xenograft; [5]): 128.9±10.7 % ID/g and 128.90 ± 10.74 % ID/g

logP [2]: -4.12 ± 0.05
HSA (albumin binding) (HSA): >91.0%
adrenal gland (LNCaP-tumor xenograft; [7]): 1.92 ± 0.80 % ID/g
blood (LNCaP-tumor xenograft; [7]): 0.52 ± 0.03 % ID/g
bone (LNCaP-tumor xenograft; [7]): 0.30 ± 0.08 % ID/g
brain (LNCaP-tumor xenograft; [7]): 0.03 ± 0.01 % ID/g
heart (LNCaP-tumor xenograft; [7]): 0.58 ± 0.06 % ID/g
intestine (LNCaP-tumor xenograft; [7]): 0.49 ± 0.25 % ID/g
liver (LNCaP-tumor xenograft; [7]): 0.37 ± 0.04 % ID/g
lung (LNCaP-tumor xenograft; [7]): 0.87 ± 0.11 % ID/g
muscle (LNCaP-tumor xenograft; [7]): 0.12 ± 0.03 % ID/g
pancreas (LNCaP-tumor xenograft; [7]): 0.18 ± 0.05 % ID/g
spleen (LNCaP-tumor xenograft; [7]): 4.62 ± 1.81 % ID/g
stomach (LNCaP-tumor xenograft; [7]): 0.51 ± 0.2 % ID/g
tumor (LNCaP-tumor xenograft; [7]): 8.00 ± 0.78 % ID/g
tumor/blood (LNCaP-tumor xenograft; [7]): 15.4
tumor/kidney (LNCaP-tumor xenograft; [7]): 0.08
tumor/muscle (LNCaP-tumor xenograft; [7]): 66.7
adrenal g. (LNCaP-tumor xenograft; [8]): 0.04 ± 0.02 % ID/g
blood (LNCaP-tumor xenograft; [8]): 0.004 ± 0.001 % ID/g
bone (LNCaP-tumor xenograft; [8]): 0.04 ± 0.006 % ID/g
brain (LNCaP-tumor xenograft; [8]): 0.01 ± 0.006 % ID/g
heart (LNCaP-tumor xenograft; [8]): 0.02 ± 0.01 % ID/g
intestine (LNCaP-tumor xenograft; [8]): 0.03 ± 0.02 % ID/g
liver (LNCaP-tumor xenograft; [8]): 0.17 ± 0.07 % ID/g
lung (LNCaP-tumor xenograft; [8]): 0.03 ± 0.02 % ID/g
muscle (LNCaP-tumor xenograft; [8]): 0.007 ± 0.001 % ID/g
pancreas (LNCaP-tumor xenograft; [8]): 0.01 ± 0.002 % ID/g
spleen (LNCaP-tumor xenograft; [8]): 0.09 ± 0.06 % ID/g
stomach (LNCaP-tumor xenograft; [8]): 0.03 ± 0.01 % ID/g
t/blood (LNCaP-tumor xenograft; [8]): 1925.0
t/kidney (LNCaP-tumor xenograft; [8]): 1.5
t/liver (LNCaP-tumor xenograft; [8]): 45.3
t/muscle (LNCaP-tumor xenograft; [8]): 1100.0
tumor (LNCaP-tumor xenograft; [8]): 7.70 ± 1.35 % ID/g
SMILES: Nc1ccc(C[C@H](NC(=O)CCC(C(=O)O)N2CCN(CC(=O)O)CCN(CC(=O)O)CCN(CC(=O)O)CC2)C(=O)N[C@H](Cc2ccc(O)cc2)C(=O)N[C@H](Cc2ccc3ccccc3c2)C(=O)N[C@H](CCCCNC(=O)[C@@H](CC(=O)NCCC[C@@H](NC(=O)CC[C@H](NC(=O)N[C@@H](CCC(=O)O)C(=O)O)C(=O)O)C(=O)O)NC(=O)c2cc(C(=O)O)cc(C(=O)O)c2)C(=O)O)cc1 (some centres unmarked) [PSMA-62, DOTAGA-F(4-NH2)y-2-nal-k(d[N^5-orn-C^4-EuE]-TMA)]
Internalization (LNCaP cells [1]; listed as [^177Lu]PSMA-62): 343.9%
Internalization (LNCaP cells [1]; listed as [^nat/177Lu]PSMA-62): 343.9 ± 6.0%
